Literature values in US12220388B2, “Uses of curcuminoid compositions” (Givaudan France Naturals SAS, priority 2018, dated 2025).

Test system: Caco-2 cells

predicted absorption in humans (from correlation of Caco-2 Papp with human absorption in vivo): 0-20% | Papp (apparent permeability coefficient) (in vitro human intestinal cells model): 0.1 ×10⁻⁶ cm/s
Structure (SMILES): COc1cc(/C=C/C(=O)CC(=O)/C=C/c2ccc(O)c(OC)c2)ccc1O [curcumin]
